Results taken from publication PMC7812727, “Neuropilin 1 and Neuropilin 2 gene invalidation or pharmacological inhibition reveals their relevance for the treatment of metastatic renal cell carcinoma” (Journal of Experimental & Clinical Cancer Research : CR, 2021).

How the values were obtained:
NRP2 (Neuropilin 2) = target: T1, NRP2 (Neuropilin 2) (Homo sapiens, UniProt O60462); assay: plate-based competitive binding assay: displacement of biotinylated VEGFA, or of VEGFC, from coated recombinant human NRP2 (chemiluminescence); assay type: biochemical
T1 construct: recombinant human NRP2
T1 sequence (O60462 21-931): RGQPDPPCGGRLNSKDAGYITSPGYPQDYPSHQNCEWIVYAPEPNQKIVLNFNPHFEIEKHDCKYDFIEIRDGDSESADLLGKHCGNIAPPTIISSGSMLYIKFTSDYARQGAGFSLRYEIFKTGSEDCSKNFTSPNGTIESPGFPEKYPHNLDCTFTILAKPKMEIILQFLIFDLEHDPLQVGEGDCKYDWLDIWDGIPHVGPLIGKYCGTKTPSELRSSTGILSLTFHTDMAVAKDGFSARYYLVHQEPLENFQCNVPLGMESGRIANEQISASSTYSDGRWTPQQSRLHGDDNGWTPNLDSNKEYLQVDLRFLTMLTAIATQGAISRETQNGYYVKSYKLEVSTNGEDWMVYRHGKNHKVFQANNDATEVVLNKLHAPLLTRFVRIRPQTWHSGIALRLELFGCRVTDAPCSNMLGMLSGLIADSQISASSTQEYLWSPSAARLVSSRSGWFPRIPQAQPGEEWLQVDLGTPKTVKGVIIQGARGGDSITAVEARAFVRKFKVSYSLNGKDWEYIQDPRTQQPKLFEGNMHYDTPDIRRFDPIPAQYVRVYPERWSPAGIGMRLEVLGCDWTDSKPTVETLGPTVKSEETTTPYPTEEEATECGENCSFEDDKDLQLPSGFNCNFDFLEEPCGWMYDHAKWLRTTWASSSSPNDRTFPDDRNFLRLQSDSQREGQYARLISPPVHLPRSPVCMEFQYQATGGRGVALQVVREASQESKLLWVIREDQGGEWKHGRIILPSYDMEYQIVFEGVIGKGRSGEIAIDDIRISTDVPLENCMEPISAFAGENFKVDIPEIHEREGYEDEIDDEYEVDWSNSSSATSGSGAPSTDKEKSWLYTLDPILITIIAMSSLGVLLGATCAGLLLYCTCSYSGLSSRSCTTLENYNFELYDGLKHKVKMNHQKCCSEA
Text: plate-based competitive binding assay: displacement of biotinylated VEGFA, or of VEGFC, from coated recombinant human NRP2 (chemiluminescence) on NRP2 (Neuropilin 2) | NRPa-308 inhibited VEGFA/NRP1 and VEGFA/NRP2 binding in a dose-dependent manner

NRP1 (Neuropilin 1) = target: T2, NRP1 (Neuropilin 1) (Homo sapiens, UniProt O14786); assay: plate-based competitive binding assay: displacement of biotinylated VEGFA from coated recombinant human NRP1 (chemiluminescence); assay type: biochemical
T2 construct: recombinant human NRP1
Text: plate-based competitive binding assay: displacement of biotinylated VEGFA from coated recombinant human NRP1 (chemiluminescence) on NRP1 (Neuropilin 1) | NRPa-308 inhibited VEGFA/NRP1 and VEGFA/NRP2 binding in a dose-dependent manner

T2 sequence (O14786 22-923): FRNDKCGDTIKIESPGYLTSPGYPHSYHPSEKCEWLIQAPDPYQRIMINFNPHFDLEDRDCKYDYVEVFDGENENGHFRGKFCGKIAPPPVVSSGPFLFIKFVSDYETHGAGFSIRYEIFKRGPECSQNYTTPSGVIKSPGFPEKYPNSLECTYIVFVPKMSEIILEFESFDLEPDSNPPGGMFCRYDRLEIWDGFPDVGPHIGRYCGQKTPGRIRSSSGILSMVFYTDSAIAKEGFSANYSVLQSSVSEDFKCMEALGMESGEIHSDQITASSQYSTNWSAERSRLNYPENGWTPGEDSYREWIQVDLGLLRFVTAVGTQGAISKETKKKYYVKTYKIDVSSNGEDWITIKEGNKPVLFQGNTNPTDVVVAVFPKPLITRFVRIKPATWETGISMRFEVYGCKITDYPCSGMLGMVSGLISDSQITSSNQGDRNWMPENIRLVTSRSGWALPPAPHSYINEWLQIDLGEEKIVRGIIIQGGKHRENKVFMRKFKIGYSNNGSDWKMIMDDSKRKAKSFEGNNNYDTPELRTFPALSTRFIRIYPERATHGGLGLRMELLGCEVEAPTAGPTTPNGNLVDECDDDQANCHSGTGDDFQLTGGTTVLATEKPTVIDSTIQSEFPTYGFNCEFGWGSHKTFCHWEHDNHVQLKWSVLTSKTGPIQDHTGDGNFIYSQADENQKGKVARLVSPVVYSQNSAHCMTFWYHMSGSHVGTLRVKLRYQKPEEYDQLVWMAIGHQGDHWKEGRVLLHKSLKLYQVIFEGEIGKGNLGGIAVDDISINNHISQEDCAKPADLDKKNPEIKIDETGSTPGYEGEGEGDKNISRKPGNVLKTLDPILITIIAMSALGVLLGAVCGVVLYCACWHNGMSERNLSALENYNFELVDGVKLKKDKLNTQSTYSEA

% maximal inhibition (NRP2 (Neuropilin 2)): ~ 40 % maximal inhibition | % maximal inhibition (NRP1 (Neuropilin 1)): ~ 40 % maximal inhibition
SMILES: CCOc1ccccc1NC(=O)c1ccc(C)c(S(=O)(=O)Nc2ccc(C)cc2)c1 [NRPa-308]
